Paper PMC2858705 (PLoS Pathogens, 2010)
Where “and” joins values, the source holds several entries; their conditions need not be identical. Equal values may be shown once. Read-outs that look alike come from different tables or passages of the source.

Columns and labels:
SARS-CoV = settings: infected cells; cited from earlier work
[1] = molecular target: SARS-CoV nsp10/nsp16 2'O-MTase (Severe acute respiratory syndrome coronavirus, UniProt P0C6X7); assay: biochemical; assay type: biochemical
SARS-CoV nsp14 N7-MTase = SARS-CoV nsp14 N7-MTase (Severe acute respiratory syndrome coronavirus, UniProt P0C6X7); assay: biochemical; assay type: biochemical
VV:N7-MTase = settings: cited from earlier work
VV:2'O-MTase = settings: cited from earlier work
DV:NS5MTase = settings: read-out: IC50 2'O-MTase activity of DV:NS5MTase; cited from earlier work

## O=C(O)C1=CC(=C(c2ccc(O)c(C(=O)O)c2)c2ccc(O)c(C(=O)O)c2)C=CC1=O [ATA, aurintricarboxylic acid]
SARS-CoV
  inhibition of SARS-CoV replication: inhibit SARS-CoV replication
[1]
  IC50 2'O-MTase activity of nsp10/nsp16: micromolar range
  inhibition of nsp16/nsp10 2'O-MTase at 100 µM (in words): efficiently inhibited
[1]; IC50 2'O-MTase activity of nsp10/nsp16
  IC50: 2100 nM and 6400 nM
SARS-CoV nsp14 N7-MTase
  IC50 N7-MTase activity of nsp14: micromolar range
  inhibition of nsp14 N7-MTase at 100 µM (in words): efficiently inhibited
SARS-CoV nsp14 N7-MTase; IC50 N7-MTase activity of nsp14
  IC50: 6400 nM and 2100 nM

## Nc1ncnc2c1ncn2[C@@H]1O[C@H](CSCC[C@H](N)C(=O)O)[C@@H](O)[C@H]1O [AdoHcy, S-adenosyl-l-homocysteine]
[1]
  inhibition of nsp16/nsp10 2'O-MTase at 100 µM (in words): efficiently inhibited
[1]; read-out: IC50 2'O-MTase activity of nsp10/nsp16
  IC50: 12000 nM
SARS-CoV nsp14 N7-MTase
  inhibition of nsp14 N7-MTase at 100 µM (in words): efficiently inhibited
SARS-CoV nsp14 N7-MTase; read-out: IC50 N7-MTase activity of nsp14
  IC50: 16000 nM
VV:N7-MTase
  Ki: 1000 nM
VV:2'O-MTase
  Ki: 500 nM

## Nc1nc2c(ncn2[C@@H]2O[C@H](COP(=O)(O)OP(=O)(O)OP(=O)(O)OC[C@H]3O[C@@H](n4cnc5c(N)ncnc54)[C@H](O)[C@@H]3O)[C@@H](O)[C@H]2O)c(=O)[nH]1 [GpppA]
[1]
  inhibition of nsp16/nsp10 2'O-MTase at 100 µM: 50%
SARS-CoV nsp14 N7-MTase
  inhibition of nsp14 N7-MTase at 100 µM: 50%

## Cn1c[n+]([C@@H]2O[C@H](COP(=O)(O)OP(=O)(O)OP(=O)(O)OC[C@H]3O[C@@H](n4cnc5c(N)ncnc54)[C@H](O)[C@@H]3O)[C@@H](O)[C@H]2O)c2nc(N)[nH]c(=O)c21 [^7MeGpppA]
[1]
  inhibition of nsp16/nsp10 2'O-MTase at 100 µM: 50%
SARS-CoV nsp14 N7-MTase
  inhibition of nsp14 N7-MTase at 100 µM: 50%

## Nc1ncnc2c1ncn2[C@@H]1O[C@H](C[C@@H](N)CC[C@H](N)C(=O)O)[C@@H](O)[C@H]1O [sinefungin, adenosyl-ornithine]
DV:NS5MTase
  IC50: 420 nM and 630 nM
VV:N7-MTase
  IC50: 12 nM
VV:2'O-MTase
  IC50: 39.5 nM
